How the values were obtained:
GPR139 [1] = biological target: T1, GPR139 (Homo sapiens, UniProt Q6DWJ6)
T1 sequence (Q6DWJ6 1-353): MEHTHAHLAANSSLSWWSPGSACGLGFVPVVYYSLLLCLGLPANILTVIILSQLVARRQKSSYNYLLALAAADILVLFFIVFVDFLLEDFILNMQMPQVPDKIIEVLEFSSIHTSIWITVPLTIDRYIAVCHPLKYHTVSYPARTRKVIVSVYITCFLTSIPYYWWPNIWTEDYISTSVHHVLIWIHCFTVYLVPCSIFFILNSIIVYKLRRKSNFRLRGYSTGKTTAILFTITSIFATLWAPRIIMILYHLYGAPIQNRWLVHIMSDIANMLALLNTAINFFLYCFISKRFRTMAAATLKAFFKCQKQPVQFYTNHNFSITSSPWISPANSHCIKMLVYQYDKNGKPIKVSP

parental HEK cells = test: HEK parental Antagonist Counterscreen Assay (non-transfected cells, acetylcholine control); format: cell-based
Text: C. […] The HEK parental counterscreen utilized the same cells but not transfected with the plasmid. The agonist and antagonist modes were run the same way as the primary screen but acetylcholine was used in place of GPR139 agonist as the control compound.
The HEK parental counterscreen utilized the same cells but not transfected with the plasmid. The antagonist modes assays utilized the cells being plated in the 1536 well plate overnight in growth media prior to dye loading in PDL coated plates and acetylcholine was used in place of GPR139 agonist as the control compound.
The HEK parental counterscreen utilized the same cells but not transfected with the plasmid. Acetylcholine was used in place of GPR139 agonist as the control compound. The cells were plated overnight, similar to the HEK antagonist counterscreen protocol.
The HEK parental counterscreens utilized the same cells but not transfected with the plasmid. Acetylcholine was used in place of GPR139 agonist as the control compound. The cells were plated overnight, similar to the HEK antagonist counterscreen protocol.
For each test compound, percent activation was plotted against compound concentration. A four parameter equation describing a sigmoidal dose-response curve was then fitted with adjustable baseline using Assay Explorer software (Symyx Technologies Inc.).

GPR139 [2] = biological target: T1, GPR139; test: GPR139 Agonist titration / agonist counterscreen assay (calcium detection, HEK-GPR139 cells); format: cell-based; design: expressed in transfected cells; host or cells: HEK Aequorin cells, Maxcyte transient transfection; details: agonist counterscreen of the antagonists; for EC50: scientific notation, molarity, read-out: GRP139 Agonist activity EC50
Method: GPR activity was assessed using a calcium detection assay. […] Negative control samples were treated with DMSO. […] Intracellular calcium was measured using Calcium 5.

GPR139 [3] = biological target: T1, GPR139; test: GPR139 Antagonist titration assay (calcium detection, HEK-GPR139 cells, vs EC80 of S-JNJ-63533054); details: for GPR139 Antagonist Activity Averaged Max % Response (±St. Dev.): activity relative to known control; for GPR139 Antagonist Activity Hill Slope: fitted dose-response curve

COc1ccc(-n2cc(-c3ccccc3)nc2SCC(=O)Nc2ccccc2C)cc1 [SR-01000555409]
GPR139 Antagonist Activity Lipophilic Efficiency (logD) (GPR139 [1]): −708.8E−3
GPR139 Antagonist Activity Lipophilic Efficiency (logP) (GPR139 [1]): −708.9E−3
HEK antagonist activity Averaged Max % Response (±St. Dev.) (parental HEK cells): 31.02 ± 1.30%
GRP139 Agonist activity Averaged Max % Response (±St. Dev.) (GPR139 [2]): −4.8E+0 ± 5.84 ^ %
EC50 (GPR139 [2]): > 13.6 µM
GPR139 Antagonist Activity Ligand Efficiency (GPR139 [3]): 0.24
GPR139 Antagonist Activity Averaged Max % Response (±St. Dev.) (GPR139 [3]): 86.26 ± 1.14%
GPR139 Antagonist Activity Hill Slope (GPR139 [3]): 0.79

COc1ccccc1-n1cc(-c2ccccc2)nc1SCC(=O)Nc1cccc(C)c1C [SR-01000555431]
GPR139 Antagonist Activity Lipophilic Efficiency (logD) (GPR139 [1]): −548.5E−3
GPR139 Antagonist Activity Lipophilic Efficiency (logP) (GPR139 [1]): −548.6E−3
HEK antagonist activity Averaged Max % Response (±St. Dev.) (parental HEK cells): 3.15 ± 12.32%
GRP139 Agonist activity Averaged Max % Response (±St. Dev.) (GPR139 [2]): 12.88 ± 6.35%
EC50 (GPR139 [2]): > 13.2 µM
GPR139 Antagonist Activity Ligand Efficiency (GPR139 [3]): 0.26
GPR139 Antagonist Activity Averaged Max % Response (±St. Dev.) (GPR139 [3]): 78.69 ± 5.10%
GPR139 Antagonist Activity Hill Slope (GPR139 [3]): 0.44

Cc1ccc(-c2cn(-c3ccccc3)c(SCC(=O)Nc3ccccc3C)n2)cc1 [SR-01000555444]
GPR139 Antagonist Activity Lipophilic Efficiency (logD) (GPR139 [1]): −1.5E+0
GPR139 Antagonist Activity Lipophilic Efficiency (logP) (GPR139 [1]): −1.5E+0
HEK antagonist activity Averaged Max % Response (±St. Dev.) (parental HEK cells): 6.69 ± 8.37%
GRP139 Agonist activity Averaged Max % Response (±St. Dev.) (GPR139 [2]): 4.27 ± 6.30%
EC50 (GPR139 [2]): > 11 µM
GPR139 Antagonist Activity Ligand Efficiency (GPR139 [3]): 0.24
GPR139 Antagonist Activity Averaged Max % Response (±St. Dev.) (GPR139 [3]): 69.32 ± 5.67%
GPR139 Antagonist Activity Hill Slope (GPR139 [3]): 1.62

Cc1ccc(-n2cc(-c3ccccc3)nc2SCC(=O)Nc2ccccc2)cc1 [SR-01000555455]
GPR139 Antagonist Activity Lipophilic Efficiency (logD) (GPR139 [1]): −1.3E+0
GPR139 Antagonist Activity Lipophilic Efficiency (logP) (GPR139 [1]): −1.3E+0
HEK antagonist activity Averaged Max % Response (±St. Dev.) (parental HEK cells): 6.61 ± 6.46%
GRP139 Agonist activity Averaged Max % Response (±St. Dev.) (GPR139 [2]): 2.28 ± 5.10%
EC50 (GPR139 [2]): > 13.3 µM
GPR139 Antagonist Activity Ligand Efficiency (GPR139 [3]): 0.24
GPR139 Antagonist Activity Averaged Max % Response (±St. Dev.) (GPR139 [3]): 52.97 ± 3.58%
GPR139 Antagonist Activity Hill Slope (GPR139 [3]): 0.71

Cc1ccc(-n2cc(-c3ccccc3)nc2SCC(=O)Nc2cccc(C)c2C)cc1 [SR-01000555460]
GPR139 Antagonist Activity Lipophilic Efficiency (logD) (GPR139 [1]): −1.9E+0
GPR139 Antagonist Activity Lipophilic Efficiency (logP) (GPR139 [1]): −1.9E+0
HEK antagonist activity Averaged Max % Response (±St. Dev.) (parental HEK cells): 8.34 ± 10.04%
GRP139 Agonist activity Averaged Max % Response (±St. Dev.) (GPR139 [2]): 7.97 ± 3.98%
EC50 (GPR139 [2]): > 11.9 µM
GPR139 Antagonist Activity Ligand Efficiency (GPR139 [3]): 0.24
GPR139 Antagonist Activity Averaged Max % Response (±St. Dev.) (GPR139 [3]): 69.58 ± 6.90%
GPR139 Antagonist Activity Hill Slope (GPR139 [3]): 1.30

Cc1ccc(-n2cc(-c3ccccc3)nc2SCC(=O)Nc2ccc(F)cc2)cc1 [SR-01000555461]
GPR139 Antagonist Activity Lipophilic Efficiency (logD) (GPR139 [1]): −954.3E−3
GPR139 Antagonist Activity Lipophilic Efficiency (logP) (GPR139 [1]): −954.4E−3
HEK antagonist activity Averaged Max % Response (±St. Dev.) (parental HEK cells): 0.37 ± 8.79%
GRP139 Agonist activity Averaged Max % Response (±St. Dev.) (GPR139 [2]): 5.29 ± 2.24%
EC50 (GPR139 [2]): > 14 µM
GPR139 Antagonist Activity Ligand Efficiency (GPR139 [3]): 0.25
GPR139 Antagonist Activity Averaged Max % Response (±St. Dev.) (GPR139 [3]): 77.29 ± 7.71%
GPR139 Antagonist Activity Hill Slope (GPR139 [3]): 1.40

Cc1cccc(-n2cc(-c3ccccc3)nc2SCC(=O)Nc2ccccc2C)c1 [SR-01000555475]
GPR139 Antagonist Activity Lipophilic Efficiency (logD) (GPR139 [1]): −768.6E−3
GPR139 Antagonist Activity Lipophilic Efficiency (logP) (GPR139 [1]): −768.8E−3
HEK antagonist activity Averaged Max % Response (±St. Dev.) (parental HEK cells): 9.07 ± 0.74%
GRP139 Agonist activity Averaged Max % Response (±St. Dev.) (GPR139 [2]): 13.90 ± 4.27%
EC50 (GPR139 [2]): > 13.2 µM
GPR139 Antagonist Activity Ligand Efficiency (GPR139 [3]): 0.28
GPR139 Antagonist Activity Averaged Max % Response (±St. Dev.) (GPR139 [3]): 90.42 ± 3.10%
GPR139 Antagonist Activity Hill Slope (GPR139 [3]): 0.57

Cc1ccc(CNC(=O)CSc2nc3ccsc3c(=O)n2NC(=O)c2cccc(Br)c2)cc1 [SR-01000564946]
GPR139 Antagonist Activity Lipophilic Efficiency (logD) (GPR139 [1]): 0.81
GPR139 Antagonist Activity Lipophilic Efficiency (logP) (GPR139 [1]): 0.81
HEK antagonist activity Averaged Max % Response (±St. Dev.) (parental HEK cells): 30.88 ± 11.77%
GRP139 Agonist activity Averaged Max % Response (±St. Dev.) (GPR139 [2]): 1.62 ± 7.06%
EC50 (GPR139 [2]): > 12.1 µM
GPR139 Antagonist Activity Ligand Efficiency (GPR139 [3]): 0.24
GPR139 Antagonist Activity Averaged Max % Response (±St. Dev.) (GPR139 [3]): 86.39 ± 3.49%
GPR139 Antagonist Activity Hill Slope (GPR139 [3]): 0.71

O=C(NCCCN1CCCC1=O)c1ccc(NCc2ccc(F)cc2)c(S(=O)(=O)Nc2cccc(C(F)(F)F)c2)c1 [SR-01000575726]
GPR139 Antagonist Activity Lipophilic Efficiency (logD) (GPR139 [1]): 2.05
GPR139 Antagonist Activity Lipophilic Efficiency (logP) (GPR139 [1]): 1.85
HEK antagonist activity Averaged Max % Response (±St. Dev.) (parental HEK cells): 42.61 ± 24.54%
GRP139 Agonist activity Averaged Max % Response (±St. Dev.) (GPR139 [2]): 4.26 ± 2.46%
EC50 (GPR139 [2]): > 13.9 µM
GPR139 Antagonist Activity Ligand Efficiency (GPR139 [3]): 0.18
GPR139 Antagonist Activity Averaged Max % Response (±St. Dev.) (GPR139 [3]): 68.96 ± 6.17%
GPR139 Antagonist Activity Hill Slope (GPR139 [3]): 0.63

CCc1ccccc1NC(=O)CSc1nnc(-c2ccccc2)c(-c2ccccc2)n1 [SR-01000581835]
GPR139 Antagonist Activity Lipophilic Efficiency (logD) (GPR139 [1]): −850.1E−3
GPR139 Antagonist Activity Lipophilic Efficiency (logP) (GPR139 [1]): −850.1E−3
HEK antagonist activity Averaged Max % Response (±St. Dev.) (parental HEK cells): 8.20 ± 4.35%
GRP139 Agonist activity Averaged Max % Response (±St. Dev.) (GPR139 [2]): 9.47 ± 9.31%
EC50 (GPR139 [2]): > 12.1 µM
GPR139 Antagonist Activity Ligand Efficiency (GPR139 [3]): 0.23
GPR139 Antagonist Activity Averaged Max % Response (±St. Dev.) (GPR139 [3]): 81.12 ± 9.72%
GPR139 Antagonist Activity Hill Slope (GPR139 [3]): 0.67

COc1ccc(C2=NN(C3CCCCCC3)C(=O)[C@@H]3CC=CC[C@@H]23)cc1OCCCCOc1ccc(-c2nn[nH]n2)cc1 [SR-05000022540]
GPR139 Antagonist Activity Lipophilic Efficiency (logD) (GPR139 [1]): −546.E−3
GPR139 Antagonist Activity Lipophilic Efficiency (logP) (GPR139 [1]): −780.8E−3
HEK antagonist activity Averaged Max % Response (±St. Dev.) (parental HEK cells): 6.21 ± 10.10%
GRP139 Agonist activity Averaged Max % Response (±St. Dev.) (GPR139 [2]): 96.44 ± 1.50%
GRP139 Agonist activity Hill Slope (GPR139 [2]): 10.54
EC50 (GPR139 [2]): 13.2 µM
GPR139 Antagonist Activity Ligand Efficiency (GPR139 [3]): 0.18
GPR139 Antagonist Activity Averaged Max % Response (±St. Dev.) (GPR139 [3]): 94.71 ± 3.14%
GPR139 Antagonist Activity Hill Slope (GPR139 [3]): 0.39
